Tested on: Egln1^Tie2Cre mice
Assay: C76 treatment of Egln1Tie2Cre mice: LV hypertrophy and cardiac fibrosis
Type: in vivo
Details: 3 week-old Egln1^Tie2Cre mice treated for 11 weeks
Experimental: Egln1^Tie2Cre mice, Egln1/Hif1a^Tie2Cre and Egln1/Hif2a^Tie2Cre double knockout mice were generated as described previously^16. Egln1^EndoCreERT2 mice were generated by crossing Egln1 floxed mice with EndoSCL-CreERT2 transgenic mice expressing the tamoxifen-inducible Cre recombinase under the control of the 5′ endothelial enhancer of the stem cell leukemia locus^23. At 8 weeks of age, Egln1^EndoCreERT2 and Egln1^f/f mice were treated with 2 mg tamoxifen intraperitoneally for 5 days to induced Egln1 deletion only in ECs. Mice were scarified at the age of ˜9 months. Both male and female mice were used in these studies. The use of animals was in compliance with the guidelines of the Animal Care and Use Committee of the Northwestern University and of the University of Arizona.
For Wheat Germ Agglutinin (WGA) staining, WGA conjugated with FITC or WGA conjugated with Alexa 647 were stained with cryosectioned slides at room temple for 10 mins.
For histological assessment, hearts were harvested and washed with PBS, followed by fixation in 4% formalin and dehydrated in 70% ethanol. After paraffin processing, the tissues were cut into semi-thin […] thick sections. Sections were stained with H & E staining or Masson's trichrome kit as a service of charge at Core Facility.
To assess the therapeutic potential of HIF-2α inhibition for cardiomyopathy, we treated 3 week-old Egln1^Tie2Cre mice with the HIF-2α translation inhibitor C76^31,35 for 11 weeks.

COC(=O)c1sccc1N/N=C(\C#N)S(C)(=O)=O [C76, methyl 3-[(2E)-2-[cyano(methylsulfonyl)methylidene]hydrazinyl]thiophene-2-carboxylate]
cardiomyocyte surface area assessed by WGA staining (FIGS. 10B and 10C): significantly attenuated
perivascular fibrosis by trichrome staining (FIGS. 10D and 10E): significantly attenuated
LV/BW ratio (LV hypertrophy) (compared to vehicle treatment, cardiac dissection (FIG. 10A)): decreased
